Tests used:
[1] = Solvency of solvents for tetrahydrocurcuminoids (THC), visual check for crystals after storage; conditions: solute tetrahydrocurcuminoids (THC), 3% test solution, approximately 1:32 solute to solvent ratio, soluble = no visible crystals
[2] = Solvency of solvents for hexylresorcinol, visual check for crystals after storage; type: physicochemical; conditions: solute hexylresorcinol, 33.5% test solution, approximately 1:2 solute to solvent ratio, soluble = no visible crystals
Experimental: (§1) In the testing provided below, “soluble” (or “solubilize”), in relation to the solubility of a solid solute being tested, means that no visible crystals may be seen after a prescribed storage period at a storage condition. The storage period can vary. Suitable storage periods include about 24 hours, about 1 week, and about 30 days. Suitable storage conditions include ambient conditions or cold storage at 5° C. (approximately 1 atm). In certain embodiments, solubility may be determined after a 24 hour storage period at ambient conditions. In other embodiments, solubility may be determined after 20 days in cold storage. Other testing parameters may include storage for prolonged time periods (e.g., 30 day, 50 days, 60 days, 90 days) and at variable temperatures (e.g., 5° C., 50° C.).
(§2) The solvency of an isosorbide diester within the scope of the present invention was tested against two conventional, industry standard solvents. […] A test solution of 33.5% hexylresorcinol is prepared with heating to 70° C. Upon reaching 70° C., the examples may be mixed for about 10 minutes. Place mixtures in a covered vial and cool to the storage temperature. Solubility is evaluated for samples stored 24 hours at ambient conditions. Solubility is also evaluated for samples stored for 7 day at 5° C. followed by equilibration to ambient conditions.

[3] = Solvency of solvents for (S)-Equol, visual check for crystals after storage; type: physicochemical; conditions: solute (S)-Equol, 6% test solution, approximately 1:16 solute to solvent ratio, soluble = no visible crystals
Experimental: as §1
as §2, with “solution was” for “solution”, “6% Equol” for “33.5% hexylresorcinol”

[4] = then equilibration to ambient conditions

CCCCCCCCCCCC(=O)N(C)CC(=O)OC(C)C [Isopropyl lauroyl sarcosinate, isopropyl lauroyl sarcosinate]
Soluble: Solubility, 24 hour rest at Ambient Conditions ([1]; heated to 70° C.) | Solubility, 7 day storage at 5° C. [1, 4] | Solubility, 24 hour rest at Ambient Conditions ([2]; heated to 70° C.) | Solubility, 7 day storage at 5° C. [2, 4] | Solubility, 24 hour rest at Ambient Conditions ([3]; heated to 70° C.) | Solubility, 7 day storage at 5° C. [3, 4]
